Activity calls are given as the source filed them.
Legend:
[1] = target: T1, Ubiquitin-conjugating enzyme E2 N (Homo sapiens, UniProt P61088); assay type: functional;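 note: Dose-response confirmation in a TR-FRET assay detecting UBC13-driven polyubiquitin chain formation, inhibition measured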
T1 sequence (P61088 whole entry): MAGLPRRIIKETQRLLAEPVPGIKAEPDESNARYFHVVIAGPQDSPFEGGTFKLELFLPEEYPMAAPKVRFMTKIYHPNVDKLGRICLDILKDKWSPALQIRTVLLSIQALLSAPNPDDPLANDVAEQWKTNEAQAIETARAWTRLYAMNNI

[2] = cytotoxicity toward DRD oncogenic fibroblasts, dose response, cell-based, non-viral oncogenic, luminescence (AID 1934); assay type: functional; conditions: Homo sapiens
BJ [3] = test: cytotoxicity toward Ras-transformed BJeLR fibroblasts, dose response, cell-based, alamar blue fluorescence, cherrypicked samples (AID 2631); assay type: functional; conditions: Homo sapiens;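 note: confirmatory dose-response assay in RAS-dependent BJ fibroblasts engineered with TERT, LT and ST, with cytotoxicity read by fluorescence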
BJ [4] = test: cytotoxicity toward BJ-TERT fibroblasts, dose response, cell-based, RAS-independent, luminescence (AID 1933); assay type: functional; conditions: Homo sapiens
[5] = Luminescence Cell-Based Dose Response HTS to Identify Inhibitors of 5'UTR Stem-Loop Driven Prion Protein mRNA Translation in H4 Neuroglioblastoma Cells. [Related pubchem assays: 1827 (Project Summary), 1813 (Primary HTS)]; assay type: functional
[6] = inhibitors of firefly luciferase expression or activity, dose response, H4 neuroglioma cells, luminescence (AID 1990); assay type: functional, cell-based
BJ [7] = test: cells; assay type: functional, cell-based; conditions: Homo sapiens
[8] = Shn3 3'UTR reporter inhibitors, dose response, cell-based, Clone20 osteoblasts, firefly luciferase, cherry-picked (AID 624132); assay type: functional;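 note: firefly luciferase luminescence from reporter carrying the Shn3 3'UTR in osteoblasts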
BJ [9] = test: cytotoxicity toward BJ-TERT-LT-ST fibroblasts, dose response, cell-based, RAS-independent, luminescence (AID 1935); assay type: functional; conditions: Homo sapiens;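 note: BJ fibroblasts immortalized with TERT plus LT and ST oncogenes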
[10] = inhibitors of SNCA 5'UTR-driven reporter translation, confirmation, H4 neuroglioma cells, luminescence (AID 1988); assay type: functional, cell-based
[11] = inhibitors of HIV Env-driven cell fusion, dose response, cherry-pick (AID 652057); assay type: functional, cell-based
[12] = ZM109 Env clade C HIV-1 fusion inhibitors, dose response, HeLa effector, CEM target cells, luciferase, cherry-pick (AID 652058); assay type: functional, cell-based
[13] = inhibitors of clade B AD8 Env fusion, dose response, cell-based, cherry-pick (AID 652062); assay type: functional;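 note: luciferase signal from cell-cell fusion driven by HIV-1 clade B AD8 Env; potency is for inhibitors of fusion seen as a drop in luminescence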
[14] = target: Voltage-dependent T-type calcium channel subunit alpha-1H (Homo sapiens, UniProt O95180); assay type: functional;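 note: channel activity triggered by adding a high calcium stimulation buffer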
[15] = test system: Streptococcus sp. 'group A'; test: growth inhibition of control SK(-) GAS strain, dose response, counter-screen for streptokinase expression inhibitor project, luminescence, kanamycin, BacTiterGlo, confirmation (AID 1900); assay type: functional, organism-based
INS1 = test: beta cell apoptosis inhibitors, cytokine rescue, dose response, luminescence, retest (AID 449756); assay type: functional, cell-based; conditions: Rattus norvegicus;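 note: cell death triggered by IL-1 beta plus TNF-alpha plus IFN-gamma mixture; protective hits raise ATP signal compared with cytokine alone wells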
[16] = control 3'UTR Renilla luciferase suppression, dose response, counter-screen for Shn3 inhibitor project, cell-based, Clone20-Shn3RL, cherry-picked (AID 624133); assay type: functional
[17] = target: Heat shock protein HSP 90-alpha (Homo sapiens, UniProt P07900); assay type: functional, organism-based
[18] = HepG2 cell cytotoxicity, dose response, cytotoxicity control for Shn3 inhibitor project, CellTiter-Glo, cherry-picked (AID 624134); assay type: functional, cell-based
Streptococcus = test: Group A Streptococcus viability loss, dose response, counter-screen for streptokinase expression inhibitor project, luminescence, BacTiterGlo (AID 1915); assay type: functional, organism-based;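 note: potency for reduction of bacterial viability or growth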
Nonstructural protein 1 = Nonstructural protein 1 (Influenza A virus, UniProt Q194T2); assay type: functional, Influenza A virus (A/California/07/2009(H1N1))
Estrogen receptor beta [19] = target: T2, Estrogen receptor beta (Homo sapiens, UniProt Q92731);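 note: recombinant ER-beta bound to coactivator SRC1 peptide in presence of estradiol agonist; inhibitors block coactivator peptide binding and lower the FRET signal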
Estrogen receptor beta [20] = target: T2, Estrogen receptor beta; test: ERβ–SRC-3 coactivator interaction inhibitors, confirmation, orthogonal assay, biochemical, ELISA, streptavidin-HRP readout (AID 1060)
Streptokinase A = target: T3, Streptokinase A (Streptococcus pyogenes serotype M1, UniProt P10520); test: S. pyogenes streptokinase expression inhibitors, potency, dose response, plasminogen activation absorbance, OD405 (AID 1914); assay type: functional, Streptococcus pyogenes M1 GAS;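 note: secreted streptokinase activity via plasminogen activation per viability signal from cell pellet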
T3 sequence (P10520 whole entry): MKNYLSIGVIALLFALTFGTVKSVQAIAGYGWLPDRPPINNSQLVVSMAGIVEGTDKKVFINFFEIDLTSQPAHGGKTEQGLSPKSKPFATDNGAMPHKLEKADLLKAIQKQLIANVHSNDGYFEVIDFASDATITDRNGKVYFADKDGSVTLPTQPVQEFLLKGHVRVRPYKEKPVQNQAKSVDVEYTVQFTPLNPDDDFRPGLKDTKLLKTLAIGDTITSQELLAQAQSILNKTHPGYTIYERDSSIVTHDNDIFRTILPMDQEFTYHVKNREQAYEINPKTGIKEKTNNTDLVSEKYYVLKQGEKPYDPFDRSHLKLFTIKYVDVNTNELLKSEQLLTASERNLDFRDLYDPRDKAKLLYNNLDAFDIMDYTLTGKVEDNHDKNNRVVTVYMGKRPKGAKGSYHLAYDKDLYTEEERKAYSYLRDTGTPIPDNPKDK

X-box-binding protein 1 = target: T4, X-box-binding protein 1 (Homo sapiens, UniProt P17861); assay type: functional, Cricetulus griseus;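 note: confirmatory dose-response counter-screen serving a CHOP assay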
T4 sequence (P17861 whole entry): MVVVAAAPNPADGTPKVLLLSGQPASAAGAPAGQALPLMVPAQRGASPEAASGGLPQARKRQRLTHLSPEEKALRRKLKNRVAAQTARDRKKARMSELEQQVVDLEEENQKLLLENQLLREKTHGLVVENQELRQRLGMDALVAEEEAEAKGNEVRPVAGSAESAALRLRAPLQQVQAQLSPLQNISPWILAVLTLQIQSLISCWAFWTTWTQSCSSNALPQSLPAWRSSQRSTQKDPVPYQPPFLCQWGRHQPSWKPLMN

[21] = target: T5, Microphthalmia-associated transcription factor (Homo sapiens, UniProt O75030); test: TRPM1 promoter luciferase signal decrease, dose response, MITF inhibitor project, cell-based, SK-MEL-5, cherry-picked, set 3 (AID 493073); assay type: functional
T5 sequence (O75030 whole entry): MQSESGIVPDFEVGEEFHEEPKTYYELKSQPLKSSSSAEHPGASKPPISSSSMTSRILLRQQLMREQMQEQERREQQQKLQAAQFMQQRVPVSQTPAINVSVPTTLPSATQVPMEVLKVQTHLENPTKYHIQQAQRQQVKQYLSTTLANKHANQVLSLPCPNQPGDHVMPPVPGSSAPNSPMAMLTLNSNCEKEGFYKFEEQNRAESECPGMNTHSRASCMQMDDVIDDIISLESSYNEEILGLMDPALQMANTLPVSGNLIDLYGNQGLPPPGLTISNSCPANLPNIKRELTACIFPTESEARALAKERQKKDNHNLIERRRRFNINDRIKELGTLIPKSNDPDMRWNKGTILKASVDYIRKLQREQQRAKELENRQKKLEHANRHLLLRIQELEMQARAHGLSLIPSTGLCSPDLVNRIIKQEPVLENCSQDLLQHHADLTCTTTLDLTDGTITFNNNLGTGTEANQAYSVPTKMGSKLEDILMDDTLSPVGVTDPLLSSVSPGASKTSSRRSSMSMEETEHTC

T2 sequence (Q92731 whole entry): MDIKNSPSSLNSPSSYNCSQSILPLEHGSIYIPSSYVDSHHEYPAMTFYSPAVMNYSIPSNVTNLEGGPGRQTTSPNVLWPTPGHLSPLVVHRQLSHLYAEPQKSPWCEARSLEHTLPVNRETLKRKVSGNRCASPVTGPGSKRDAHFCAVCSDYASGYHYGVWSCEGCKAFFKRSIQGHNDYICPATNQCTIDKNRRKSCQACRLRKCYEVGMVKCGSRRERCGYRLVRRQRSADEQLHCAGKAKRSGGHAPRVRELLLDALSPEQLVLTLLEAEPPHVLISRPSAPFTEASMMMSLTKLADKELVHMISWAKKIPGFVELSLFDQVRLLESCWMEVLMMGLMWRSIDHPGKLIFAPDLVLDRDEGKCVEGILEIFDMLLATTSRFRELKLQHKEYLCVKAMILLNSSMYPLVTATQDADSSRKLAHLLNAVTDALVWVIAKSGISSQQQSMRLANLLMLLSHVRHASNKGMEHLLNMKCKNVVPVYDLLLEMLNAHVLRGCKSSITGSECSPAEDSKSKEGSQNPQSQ
Voltage-dependent T-type calcium channel subunit alpha-1H, sequence (O95180 whole entry): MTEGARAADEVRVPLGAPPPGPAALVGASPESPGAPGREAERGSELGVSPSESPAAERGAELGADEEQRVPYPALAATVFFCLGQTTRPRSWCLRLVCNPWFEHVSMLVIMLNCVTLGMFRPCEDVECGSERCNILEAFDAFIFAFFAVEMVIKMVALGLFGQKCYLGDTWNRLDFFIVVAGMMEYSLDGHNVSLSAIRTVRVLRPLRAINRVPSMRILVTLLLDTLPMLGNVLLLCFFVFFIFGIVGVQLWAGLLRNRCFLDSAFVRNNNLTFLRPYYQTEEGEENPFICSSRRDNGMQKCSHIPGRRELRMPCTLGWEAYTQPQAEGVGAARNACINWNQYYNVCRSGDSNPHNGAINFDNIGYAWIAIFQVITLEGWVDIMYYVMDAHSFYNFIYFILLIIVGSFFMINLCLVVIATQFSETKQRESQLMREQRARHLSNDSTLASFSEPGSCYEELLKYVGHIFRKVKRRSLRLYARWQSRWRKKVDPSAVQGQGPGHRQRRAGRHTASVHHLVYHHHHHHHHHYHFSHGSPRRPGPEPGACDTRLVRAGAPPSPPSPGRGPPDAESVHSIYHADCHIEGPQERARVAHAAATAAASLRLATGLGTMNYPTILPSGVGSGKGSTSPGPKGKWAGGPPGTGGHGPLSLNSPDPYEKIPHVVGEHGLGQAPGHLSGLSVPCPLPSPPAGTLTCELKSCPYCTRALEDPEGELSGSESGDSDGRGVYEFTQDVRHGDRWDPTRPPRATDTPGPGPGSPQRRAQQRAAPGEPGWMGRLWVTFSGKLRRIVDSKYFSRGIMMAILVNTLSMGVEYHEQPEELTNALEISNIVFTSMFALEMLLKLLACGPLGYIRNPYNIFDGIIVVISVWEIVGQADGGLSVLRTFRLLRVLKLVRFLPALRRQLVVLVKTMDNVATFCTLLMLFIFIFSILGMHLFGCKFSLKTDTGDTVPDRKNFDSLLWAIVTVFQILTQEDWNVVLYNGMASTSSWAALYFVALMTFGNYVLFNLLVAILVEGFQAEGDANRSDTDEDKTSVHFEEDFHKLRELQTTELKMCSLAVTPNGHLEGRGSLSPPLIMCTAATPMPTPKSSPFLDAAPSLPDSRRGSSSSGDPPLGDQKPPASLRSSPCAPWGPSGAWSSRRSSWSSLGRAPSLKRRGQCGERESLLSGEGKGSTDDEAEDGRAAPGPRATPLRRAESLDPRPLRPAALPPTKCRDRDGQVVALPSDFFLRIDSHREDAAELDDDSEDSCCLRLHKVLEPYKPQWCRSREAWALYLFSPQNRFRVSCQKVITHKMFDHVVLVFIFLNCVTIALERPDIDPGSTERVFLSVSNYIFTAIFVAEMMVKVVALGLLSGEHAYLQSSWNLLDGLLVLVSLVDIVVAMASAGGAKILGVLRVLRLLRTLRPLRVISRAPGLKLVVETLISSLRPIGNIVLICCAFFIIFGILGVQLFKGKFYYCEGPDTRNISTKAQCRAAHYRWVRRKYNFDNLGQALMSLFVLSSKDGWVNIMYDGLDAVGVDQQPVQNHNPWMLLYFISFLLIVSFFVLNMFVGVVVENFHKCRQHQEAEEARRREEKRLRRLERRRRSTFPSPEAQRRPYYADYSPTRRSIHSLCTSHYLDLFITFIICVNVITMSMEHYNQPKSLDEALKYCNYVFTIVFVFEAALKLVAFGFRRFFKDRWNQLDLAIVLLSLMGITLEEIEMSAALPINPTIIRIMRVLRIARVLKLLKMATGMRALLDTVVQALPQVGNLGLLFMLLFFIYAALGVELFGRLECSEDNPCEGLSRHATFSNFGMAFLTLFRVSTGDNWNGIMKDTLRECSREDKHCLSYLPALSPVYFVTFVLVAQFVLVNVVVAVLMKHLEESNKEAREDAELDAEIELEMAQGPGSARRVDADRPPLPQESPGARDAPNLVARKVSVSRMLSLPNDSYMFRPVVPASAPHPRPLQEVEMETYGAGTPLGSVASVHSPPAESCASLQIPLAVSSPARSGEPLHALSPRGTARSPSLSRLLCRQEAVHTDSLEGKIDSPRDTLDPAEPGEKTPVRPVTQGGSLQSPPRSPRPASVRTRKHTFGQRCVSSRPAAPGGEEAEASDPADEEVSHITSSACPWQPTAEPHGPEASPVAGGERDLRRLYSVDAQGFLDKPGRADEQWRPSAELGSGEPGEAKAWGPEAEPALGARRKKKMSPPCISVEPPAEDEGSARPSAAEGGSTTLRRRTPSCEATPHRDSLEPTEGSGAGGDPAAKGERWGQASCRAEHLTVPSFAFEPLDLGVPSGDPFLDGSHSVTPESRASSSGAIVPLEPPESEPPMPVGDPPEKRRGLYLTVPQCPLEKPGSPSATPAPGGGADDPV
Nonstructural protein 1, sequence (Q194T2 whole entry): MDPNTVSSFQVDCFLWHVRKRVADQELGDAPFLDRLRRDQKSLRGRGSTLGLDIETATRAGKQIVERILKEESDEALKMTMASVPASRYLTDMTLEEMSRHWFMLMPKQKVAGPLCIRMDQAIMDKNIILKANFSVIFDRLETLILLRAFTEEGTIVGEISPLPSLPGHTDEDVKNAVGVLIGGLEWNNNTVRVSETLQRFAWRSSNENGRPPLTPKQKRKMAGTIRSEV

For `CCOc1ccc(C(=O)C(C)OC(=O)c2nc(Cl)ccc2Cl)cc1` (stereo unspecified), which IC50 [1] is on record?
Its IC50 is > 20 µM (inactive).

For `CC1(C)CC(=O)c2c(nc(SCC(=O)Nc3nsc(-c4ccccc4)n3)c(C#N)c2-c2ccccc2)C1`, which EC50 [2] is on record?
Its EC50 is 35 µM (active).

What about the EC50 (BJ [3]) of the same compound?
Its EC50 is 0.596 µM (active).

And the EC50 (BJ [4])?
The EC50 was > 150 µM (not active).

And the EC50 [5]?
The EC50 was > 120 µM (not active).

What about the EC50 [6] of the same compound?
Its EC50 is > 120 µM (not active).

What about the EC50 (BJ [7]) of the same compound?
Its EC50 is 7.76 µM (active).

What about the AC50 [8] of the same compound?
Its AC50 is > 70 µM (inactive).

And the EC50 (BJ [9])?
Its EC50 is > 150 µM (not active).

What about the EC50 [10] of the same compound?
The EC50 was 13.4 µM (active).

For `O=C(CCN1C(=O)/C(=C/c2ccccc2Cl)SC1=S)NCCCN1CCOCC1`, which IC50 [1] is on record?
Its IC50 is > 20 µM (inactive).

With `Cc1ccc(-c2nnc(N3CCN(C(=O)COc4ccccc4)CC3)c3ccccc23)cc1` as the compound, how does the AC50 [11] read?
Its AC50 is 31.6 µM (active).

What about the AC50 [12] of the same compound?
Its AC50 is 13.9 µM (active).

And the AC50 [13]?
Its AC50 is 34.9 µM (active).

And the EC50 [14]?
Its EC50 is 4.54 µM (active).

What does the source list for `O=C(/C=C/c1ccc(F)cc1)NC(=S)NNC(=O)c1cnccn1`?
EC50 [15]: 1.37 µM (active); AC50 (INS1): 1.21 µM (active); AC50 [16]: 2.01 µM (active); AC50 [17]: 3.35 µM (active); AC50 [18]: > 70 µM (inactive); EC50 [5]: 10.5 µM (active); EC50 (Streptococcus): 2.75 µM (active); IC50 (Nonstructural protein 1): 1.56 µM (active); EC50 [6]: 11.7 µM (active); AC50 [8]: 1.39 µM (active); EC50 [10]: > 120 µM (not active)

For `COc1ccc(NC(=O)CN(c2ccccc2)S(=O)(=O)N(C)C)cc1OC`, which IC50 (Estrogen receptor beta [19]) is on record?
Its IC50 is 10.1 µM (active).

What about the IC50 (Estrogen receptor beta [20]) of the same compound?
Its IC50 is > 109 µM (not active).

With `Cc1ccc(-c2nc3cc(NS(=O)(=O)c4ccc(C)cc4)ccc3o2)cc1` as the compound, how does the EC50 [15] read?
Its EC50 is 5.82 µM (active).

And the EC50 (Streptokinase A)?
The EC50 was 5.86 µM (active).

And the “Absolute IC50 (XBP1)” value (X-box-binding protein 1)?
Its value is 10 µM.

What about the EC50 (Streptococcus) of the same compound?
Its EC50 is 18.1 µM (active).

For `O=C(Nc1cc(-c2nc3ncccc3o2)ccc1Cl)c1ccc([N+](=O)[O-])o1`, which AC50 [21] is on record?
Its AC50 is 5.76 µM (active).

For `Cc1ccc(-n2c(O)nc3c(C(N)=O)nc(-c4ccc(C)o4)nc32)cc1`, which “Absolute IC50 (XBP1)” value (X-box-binding protein 1) is on record?
Its value is 10 µM.

With `N#C/C(=C\c1cccc(Oc2ccccc2)c1)C(=O)N1CCOCC1` as the compound, how does the AC50 [17] read?
The AC50 was 8.82 µM (active).

For `CCC1CCc2c(sc(NC(=O)c3ccoc3C)c2C(N)=O)C1` (stereo unspecified), which “Absolute IC50 (XBP1)” value (X-box-binding protein 1) is on record?
Its value is 10 µM.

Reference: ChEMBL document CHEMBL1201862, “PubChem BioAssay data set” (2004)
